Results published in the supplement of paper PMC10883282.
± gives the standard deviation of the averaged measurements.

Assays:
Assay in all cases: relative viability vs DMSO control (72 h) (fraction); higher = more viable cells
[1] = test system: A204
In short: (§1)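 Serially diluted compound, 2.5 µl from source plates spanning 10 mM to 0.0002 mM, was added 24 h after sarcoma cell lines were seeded in 384-well plates at densities targeting 80–90% confluence. Plates then sat 72 h at 37 °C, 5% CO2, with 0.1% DMSO vehicle and a 5 µM positive control. Relative viability came from ATPLite as percent growth, averaged over up to triplicate wells, and was rescaled with 1 as full and 0 as none.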

[2] = test system: SW982
In short: as §1

[3] = test system: SW1353
In short: as §1

[4] = test system: G401
In short: as §1

[5] = test system: SW872
In short: as §1

[6] = test system: SK-LMS-1
In short: as §1

[7] = test system: SK-ES-1
In short: as §1

[8] = test system: MES-SA
In short: as §1

[9] = test system: SYO-1
In short: as §1

[10] = test system: KHOS-240S
In short: as §1

[11] = test system: SW684
In short: as §1

[12] = test system: HS729
In short: as §1

O=S(=O)(c1cccc2cnccc12)N1CCCNCC1 [Fasudil]
relative viability
Settings	0.00051 µM	0.00152 µM	0.00457 µM	0.01372 µM	0.04115 µM	0.1235 µM	0.3704 µM	1.111 µM	3.333 µM	10 µM
[1]	0.98 ± 0.03	1.03 ± 0.023	1.02 ± 0.047	1.02 ± 0.046	1.01 ± 0.029	0.987 ± 0.021	1.01 ± 0.011	0.991 ± 0.038	0.973 ± 0.059	0.891 ± 0.05
[2]	0.974 ± 0.013	0.974 ± 0.032	0.966 ± 0.028	0.987 ± 0.014	0.976 ± 0.016	0.971 ± 0.015	0.961 ± 0.012	0.977 ± 0.04	0.962 ± 0.033	0.966 ± 0.014
[3]	1.01 ± 0.027	1.048 ± 0.0054	1.03 ± 0.013	1.03 ± 0.045	1.0327 ± 0.00085	1 ± 0.025	1.04 ± 0.011	1.03 ± 0.024	0.97 ± 0.063	0.888 ± 0.12
[4]	0.9413 ± 0.0077	0.92867 ± 0.0005	0.943 ± 0.034	0.948 ± 0.03	0.945 ± 0.039	0.975 ± 0.035	0.972 ± 0.042	0.984 ± 0.018	1.01 ± 0.046	1 ± 0.029
[5]	0.959 ± 0.024	0.979 ± 0.023	0.993 ± 0.037	0.964 ± 0.054	0.958 ± 0.033	0.9735 ± 0.0087	0.966 ± 0.05	0.9852 ± 0.0089	1 ± 0.015	0.929 ± 0.011
[6]	1.05 ± 0.073	1.05 ± 0.018	1.036 ± 0.0094	1.08 ± 0.021	1.03 ± 0.04	1.06 ± 0.055	1.03 ± 0.049	1.05 ± 0.013	1.01 ± 0.025	0.977 ± 0.05
[7]	0.955 ± 0.017	0.964 ± 0.049	0.963 ± 0.013	0.967 ± 0.053	0.996 ± 0.033	0.989 ± 0.032	1 ± 0.039	1.02 ± 0.032	1.06 ± 0.013	1.04 ± 0.033
[8]	0.955 ± 0.02	0.967 ± 0.034	0.96 ± 0.021	0.967 ± 0.017	0.992 ± 0.015	0.967 ± 0.0097	0.994 ± 0.036	0.987 ± 0.037	0.941 ± 0.022	0.895 ± 0.026
[9]	0.95 ± 0.033	0.984 ± 0.024	0.954 ± 0.038	0.9485 ± 0.0056	0.963 ± 0.036	0.954 ± 0.014	0.983 ± 0.02	0.97 ± 0.069	0.968 ± 0.014	0.902 ± 0.028
[10]	0.974 ± 0.012	0.976 ± 0.013	0.961 ± 0.0044	0.966 ± 0.022	0.957 ± 0.01	0.961 ± 0.021	0.959 ± 0.03	0.952 ± 0.048	0.942 ± 0.042	0.8862 ± 0.0063
[11]	1.02 ± 0.069	1.02 ± 0.02	0.965 ± 0.013	0.945 ± 0.031	0.965 ± 0.08	0.986 ± 0.038	1.02 ± 0.041	0.95 ± 0.056	0.895 ± 0.058	0.761 ± 0.074
[12]	0.949 ± 0.033	0.964 ± 0.029	1.01 ± 0.039	0.949 ± 0.032	0.953 ± 0.045	0.926 ± 0.047	0.974 ± 0.045	0.957 ± 0.074	0.925 ± 0.049	0.855 ± 0.019

O=C(Nc1nc2cccc(-c3ccc(CN4CCS(=O)(=O)CC4)cc3)n2n1)C1CC1 [Filgotinib]
Settings	relative viability
[1], 0.00017 µM	1.09 ± 0.012
[1], 0.00051 µM	1.15 ± 0.026
[1], 0.00152 µM	1.07 ± 0.02
[1], 0.00457 µM	1.068 ± 0.01
[1], 0.01372 µM	1.06 ± 0.075
[1], 0.04115 µM	1.14 ± 0.04
[1], 0.1235 µM	1.13 ± 0.067
[1], 0.3704 µM	1.1 ± 0.061
[1], 1.111 µM	1.12 ± 0.029
[1], 3.333 µM	1.14 ± 0.059
[1], 10 µM	0.974 ± 0.1
[2], 0.00017 µM	1 ± 0.025
[2], 0.00051 µM	1.04 ± 0.028
[2], 0.00152 µM	1.06 ± 0.04
[2], 0.00457 µM	1.08 ± 0.03
[2], 0.01372 µM	1.05 ± 0.012
[2], 0.04115 µM	1.06 ± 0.012
[2], 0.1235 µM	1.02 ± 0.031
[2], 0.3704 µM	1.06 ± 0.013
[2], 1.111 µM	1.02 ± 0.023
[2], 3.333 µM	1.06 ± 0.024
[2], 10 µM	0.939 ± 0.071
[3], 0.00017 µM	1.06 ± 0.028
[3], 0.00051 µM	1.09 ± 0.047
[3], 0.00152 µM	1.05 ± 0.05
[3], 0.00457 µM	1.01 ± 0.015
[3], 0.01372 µM	1.04 ± 0.024
[3], 0.04115 µM	1 ± 0.036
[3], 0.1235 µM	0.981 ± 0.053
[3], 0.3704 µM	1.02 ± 0.057
[3], 1.111 µM	1 ± 0.023
[3], 3.333 µM	0.985 ± 0.019
[3], 10 µM	0.968 ± 0.014
[4], 0.00017 µM	0.988 ± 0.026
[4], 0.00051 µM	1.04 ± 0.059
[4], 0.00152 µM	1.027 ± 0.01
[4], 0.00457 µM	1.03 ± 0.033
[4], 0.01372 µM	1.01 ± 0.036
[4], 0.04115 µM	0.995 ± 0.016
[4], 0.1235 µM	1.04 ± 0.02
[4], 0.3704 µM	1.01 ± 0.017
[4], 1.111 µM	1.03 ± 0.048
[4], 3.333 µM	1.01 ± 0.043
[4], 10 µM	0.911 ± 0.059
[5], 0.00017 µM	1.07 ± 0.021
[5], 0.00051 µM	1.02 ± 0.015
[5], 0.00152 µM	1.05 ± 0.021
[5], 0.00457 µM	1.03 ± 0.024
[5], 0.01372 µM	1.04 ± 0.025
[5], 0.04115 µM	1.01 ± 0.031
[5], 0.1235 µM	1.02 ± 0.047
[5], 0.3704 µM	1.02 ± 0.037
[5], 1.111 µM	1.03 ± 0.043
[5], 3.333 µM	1.02 ± 0.044
[5], 10 µM	0.933 ± 0.098
[6], 0.00017 µM	1.06 ± 0.012
[6], 0.00051 µM	1.08 ± 0.025
[6], 0.00152 µM	1.06 ± 0.033
[6], 0.00457 µM	1.06 ± 0.032
[6], 0.01372 µM	1.06 ± 0.021
[6], 0.04115 µM	1.08 ± 0.037
[6], 0.1235 µM	1.05 ± 0.036
[6], 0.3704 µM	1.05 ± 0.074
[6], 1.111 µM	1.04 ± 0.055
[6], 3.333 µM	1.02 ± 0.083
[6], 10 µM	0.866 ± 0.013
[7], 0.00017 µM	1.02 ± 0.044
[7], 0.00051 µM	1.06 ± 0.038
[7], 0.00152 µM	1.07 ± 0.046
[7], 0.00457 µM	1.04 ± 0.017
[7], 0.01372 µM	1.06 ± 0.083
[7], 0.04115 µM	1.07 ± 0.037
[7], 0.1235 µM	1.04 ± 0.039
[7], 0.3704 µM	1.03 ± 0.037
[7], 1.111 µM	1 ± 0.042
[7], 3.333 µM	1.05 ± 0.035
[7], 10 µM	0.8196 ± 0.0029
[8], 0.00017 µM	0.977 ± 0.016
[8], 0.00051 µM	0.964 ± 0.031
[8], 0.00152 µM	0.943 ± 0.051
[8], 0.00457 µM	0.965 ± 0.02
[8], 0.01372 µM	0.949 ± 0.023
[8], 0.04115 µM	0.953 ± 0.026
[8], 0.1235 µM	0.957 ± 0.02
[8], 0.3704 µM	0.935 ± 0.025
[8], 1.111 µM	0.94 ± 0.02
[8], 3.333 µM	0.923 ± 0.022
[8], 10 µM	0.736 ± 0.038
[9], 0.00017 µM	0.992 ± 0.029
[9], 0.00051 µM	0.995 ± 0.04
[9], 0.00152 µM	0.957 ± 0.042
[9], 0.00457 µM	0.97 ± 0.021
[9], 0.01372 µM	0.907 ± 0.051
[9], 0.04115 µM	0.903 ± 0.036
[9], 0.1235 µM	0.872 ± 0.032
[9], 0.3704 µM	0.843 ± 0.025
[9], 1.111 µM	0.7846 ± 0.007
[9], 3.333 µM	0.724 ± 0.0073
[9], 10 µM	0.551 ± 0.03
[10], 0.00017 µM	1.04 ± 0.013
[10], 0.00051 µM	1.08 ± 0.038
[10], 0.00152 µM	1.06 ± 0.028
[10], 0.00457 µM	1.08 ± 0.033
[10], 0.01372 µM	1.07 ± 0.029
[10], 0.04115 µM	1.07 ± 0.027
[10], 0.1235 µM	1.03 ± 0.024
[10], 0.3704 µM	1.06 ± 0.024
[10], 1.111 µM	1.054 ± 0.0083
[10], 3.333 µM	1.02 ± 0.019
[10], 10 µM	0.932 ± 0.03
[11], 0.00017 µM	1.13 ± 0.044
[11], 0.00051 µM	1.19 ± 0.031
[11], 0.00152 µM	1.211 ± 0.0088
[11], 0.00457 µM	1.19 ± 0.083
[11], 0.01372 µM	1.16 ± 0.036
[11], 0.04115 µM	1.19 ± 0.037
[11], 0.1235 µM	1.18 ± 0.012
[11], 0.3704 µM	1.19 ± 0.017
[11], 1.111 µM	1.18 ± 0.05
[11], 3.333 µM	1.16 ± 0.077
[11], 10 µM	1.09 ± 0.02
[12], 0.00017 µM	1.04 ± 0.034
[12], 0.00051 µM	0.993 ± 0.058
[12], 0.00152 µM	0.953 ± 0.044
[12], 0.00457 µM	0.95 ± 0.015
[12], 0.01372 µM	0.938 ± 0.072
[12], 0.04115 µM	0.898 ± 0.031
[12], 0.1235 µM	0.888 ± 0.06
[12], 0.3704 µM	0.934 ± 0.079
[12], 1.111 µM	0.906 ± 0.11
[12], 3.333 µM	0.849 ± 0.009
[12], 10 µM	0.831 ± 0.037
